Assay: 28-day repeat-dose toxicity study, toxicokinetics of AMXT 1501 dicaprate
Assay type: in vivo, beagle dogs
Description: AMXT 1501 PK parameters were calculated for all AMXT 1501 dicaprate-dosed animals for the first dose (Day 1) and last dose (Day 28).

[1] = 8 mg/kg/day PO, DFMO 0, Day 1, M+F combined
[2] = 8 mg/kg/day PO, DFMO 0, Day 28, M+F combined
[3] = 8 mg/kg/day PO, DFMO 50 mg/kg/day, Day 28, M+F combined
[4] = 8 mg/kg/day PO, DFMO 200 mg/kg/day, Day 1, M+F combined
[5] = 16 mg/kg/day PO, DFMO 0, Day 1, M+F combined
[6] = 16 mg/kg/day PO, DFMO 0, Day 28, M+F combined
[7] = 16 mg/kg/day PO, DFMO 50 mg/kg/day, Day 28, M+F combined
[8] = 16 mg/kg/day PO, DFMO 200 mg/kg/day, Day 1, M+F combined
[9] = 32 mg/kg/day PO, DFMO 0, Day 1, M+F combined
[10] = 32 mg/kg/day PO, DFMO 0, Day 28, M+F combined

In the case of `CCCCCCCCCCCCCCCC(=O)NCCCC[C@@H](N)C(=O)NCCCNCCCCNCCCN` [AMXT 1501 dicaprate], the “AUC0-24 hr Max.” value [1] was 2810 ng·h/mL, the “AUC0-24 hr Min.” value [1] was 374 ng·h/mL and the “Cmax Max.” value [1] was 158 ng/mL. The “Cmax Min.” value [1] was 30.8 ng/mL, the “Tmax Max.” value [1] was 12.0 h and the “Tmax Min.” value [1] was 2.00 h. The “AUC0-24 hr Max.” value [2] was 5230 ng·h/mL, the “AUC0-24 hr Min.” value [2] was 249 ng·h/mL and the “AUC0-t Max.” value [2] was 9470 ng·h/mL. For the same compound, the “AUC0-t Min.” value [2] was 308 ng·h/mL, the “AUC0-∞ Min.” value [2] was 328 ng·h/mL and the “Cmax Max.” value [2] was 360 ng/mL. The “Cmax Min.” value [2] was 17.7 ng/mL, the “Tmax Min.” value [2] was 0.00 h and the “t1/2 Max.” value [2] was 28.8 h. For the same compound, the “t1/2 Min.” value [2] was 12.6 h, the “AUC0-24 hr Max.” value [3] was 4230 ng·h/mL and the “AUC0-24 hr Min.” value [3] was 366 ng·h/mL. For the same compound, the “AUC0-t Max.” value [3] was 5010 ng·h/mL, the “AUC0-t Min.” value [3] was 1040 ng·h/mL and the “AUC0-∞ Max.” value [3] was 5120 ng·h/mL. The “AUC0-∞ Min.” value [3] was 1060 ng·h/mL, the “Cmax Max.” value [3] was 275 ng/mL and the “Cmax Min.” value [3] was 48.0 ng/mL. For the same compound, the “Tmax Max.” value [3] was 12.0 h, the “Tmax Min.” value [3] was 0.00 h and the “t1/2 Max.” value [3] was 24.9 h. The “t1/2 Min.” value [3] was 8.85 h, the “AUC0-24 hr Max.” value [4] was 2670 ng·h/mL and the “AUC0-24 hr Min.” value [4] was 323 ng·h/mL. The “Cmax Max.” value [4] was 182 ng/mL, the “Cmax Min.” value [4] was 35.2 ng/mL and the “Tmax Max.” value [4] was 12.0 h. For the same compound, the “AUC0-24 hr Max.” value [5] was 6350 ng·h/mL, the “AUC0-24 hr Min.” value [5] was 104 ng·h/mL and the “Cmax Max.” value [5] was 408 ng/mL. The “Cmax Min.” value [5] was 10.4 ng/mL, the “Tmax Max.” value [5] was 12.0 h and the “Tmax Min.” value [5] was 2.00 h. For the same compound, the “AUC0-24 hr Max.” value [6] was 7800 ng·h/mL, the “AUC0-24 hr Min.” value [6] was 1320 ng·h/mL and the “AUC0-t Max.” value [6] was 10800 ng·h/mL. For the same compound, the “AUC0-t Min.” value [6] was 4870 ng·h/mL, the “AUC0-∞ Max.” value [6] was 10800 ng·h/mL and the “AUC0-∞ Min.” value [6] was 4910 ng·h/mL. For the same compound, the “Cmax Max.” value [6] was 408 ng/mL, the “Cmax Min.” value [6] was 109 ng/mL and the “Tmax Max.” value [6] was 12.0 h. For the same compound, the “Tmax Min.” value [6] was 0.00 h, the “t1/2 Max.” value [6] was 35.8 h and the “t1/2 Min.” value [6] was 10.1 h. For the same compound, the “AUC0-24 hr Max.” value [7] was 10800 ng·h/mL, the “AUC0-24 hr Min.” value [7] was 1480 ng·h/mL and the “AUC0-t Max.” value [7] was 22300 ng·h/mL. For the same compound, the “AUC0-t Min.” value [7] was 3410 ng·h/mL, the “AUC0-∞ Max.” value [7] was 22600 ng·h/mL and the “AUC0-∞ Min.” value [7] was 3610 ng·h/mL. The “Cmax Max.” value [7] was 578 ng/mL, the “Cmax Min.” value [7] was 98.4 ng/mL and the “Tmax Max.” value [7] was 12.0 h. For the same compound, the “Tmax Min.” value [7] was 0.00 h, the “t1/2 Max.” value [7] was 69.4 h and the “t1/2 Min.” value [7] was 26.4 h. For the same compound, the “AUC0-24 hr Max.” value [8] was 4280 ng·h/mL, the “AUC0-24 hr Min.” value [8] was 94.4 ng·h/mL and the “Cmax Max.” value [8] was 263 ng/mL. For the same compound, the “Cmax Min.” value [8] was 7.27 ng/mL, the “Tmax Max.” value [8] was 12.0 h and the “AUC0-24 hr Max.” value [9] was 6590 ng·h/mL. For the same compound, the “AUC0-24 hr Min.” value [9] was 999 ng·h/mL, the “Cmax Max.” value [9] was 353 ng/mL and the “Cmax Min.” value [9] was 58.2 ng/mL. For the same compound, the “Tmax Max.” value [9] was 12.0 h, the “Tmax Min.” value [9] was 2.00 h and the “AUC0-24 hr Max.” value [10] was 16600 ng·h/mL. The “AUC0-24 hr Min.” value [10] was 2830 ng·h/mL, the “AUC0-t Max.” value [10] was 41500 ng·h/mL and the “AUC0-t Min.” value [10] was 8730 ng·h/mL. For the same compound, the “AUC0-∞ Max.” value [10] was 41700 ng·h/mL, the “AUC0-∞ Min.” value [10] was 8810 ng·h/mL and the “Cmax Max.” value [10] was 1110 ng/mL. For the same compound, the “Cmax Min.” value [10] was 190 ng/mL, the “Tmax Max.” value [10] was 12.0 h and the “Tmax Min.” value [10] was 0.00 h. The “t1/2 Max.” value [10] was 61.1 h, the “t1/2 Min.” value [10] was 27.3 h and the “dose-proportionality of plasma levels of AMXT 1501” value (8, 16 and 32 mg/kg/day, Day 1 and Day 28, enterically-coated tablets) was “approximately dose-proportional increases”. It also gave a half-life at 28 days (beagle, dog, plasma, oral, Day 28, all dose groups, read-out: Day 28 individual animal AMXT 1501 t1/2 values) of 8.85 to 69.4 h and an AUC(0-t) (both sexes, beagle, dog, plasma, po, 8 mg/kg/day, 8 mg/kg/day PO, DFMO 0, Day 1, M+F combined, read-out: AUC0-24 hr Mean) of 1330 ng·h/mL.

From patent US12364709B2, “Bioavailable poly amines” (AMINEX THERAPEUTICS, INC., priority 2016, dated 2025)
